Experimental data published in patent US20110288093A1 (priority 2010, published 2011).
Entries after “also recorded” stand apart in the source; their conditions may differ.

Columns and labels:
cholera toxin (CTX) = test system: cholera toxin (CTX); parameters: species or system mice (CD1 strain); conditions: mouse, in vivo
[1] = test system: Calcium activated chloride conductance (CaCC); assay: Whole cell patch clamp recordings of CaCC in JME/CF15 cells; type: cell-based
Method: (§1) Compound 2 was tested in whole cell patch clamp recordings for its specific effect on the swelling-activated chloride conductance (VRAC), and the Calcium activated chloride conductance (CaCC). CaCC and VRAC were investigated in JME/CF15 cells. […] Effect of compound 2 was tested in 2 runs at 1 and 10 μM, respectively, on CaCC, and VRAC.
(§2) JME/CF15 cells (see Jefferson et al. “Expression of normal and cystic fibrosis phenotypes by continuous airway epithelial cell lines” Am J Physiol. (1990) 259:L496-L505) were cultured as described (see Schwarzer et al. “Organelle redox of CF and CFTR-corrected airway epithelia measured with roGFP1” Free Radic Biol Med. (2007) 43:300-316, incorporated herein by reference in its entirety) and were seeded onto glass cover slips at low density and used 1 to 2 days after seeding
(§3) Whole cell patch clamp experiments were performed as described (see Fischer et al. “Basolateral C1 channels in primary airway epithelial cultures” Am J Physiol Lung Cell Mol Physiol. (2007) 292:L1432-L1443, incorporated herein by reference in its entirety), the pipette solution contained (in mM): 140 HCl, 160 N-methyl-D-glucamine (NMDG), 1 MgCl2, 5 Hepes, 1 glucose, 5 MgATP, pH 7.4. To investigate VRAC, the pipette contained in addition 5 mM EGTA. To investigate CaCC, the intracellular free Ca concentration was buffered to ˜500 nM by adding 1.8 mM CaCl2 and 2 mM EGTA. […]

[2] = test system: swelling-activated chloride conductance (VRAC); assay: Whole cell patch clamp recordings of VRAC in JME/CF15 cells; type: cell-based
Method: as §1, §2, §3

[3] = 10 μM, 0% indicates complete block and 100% indicates no block
[4] = tested at 1 and 10 μM, block stronger at depolarizing (positive) potential

SMILES	inhibition of CTX-induced fluid secretion (cholera toxin (CTX)) [%]	inhibition of fluid secretion (in words) (cholera toxin (CTX))	net fluid secretion (loop weight/loop length), CTX loop (cholera toxin (CTX))	current remaining in CaCC after the addition of compound [1, 3] [%]	block of CaCC (in words) [1, 4]	current remaining in VRAC [2, 3] [%]	block of VRAC (in words) [2, 4]
O=C(NCc1ccc(Oc2ccccc2)cc1)c1nc(-c2cc(Br)c(O)c(Br)c2)no1 [BF'032, 3-(3,5-dibromo-4-hydroxyphenyl)-N-(4-phenoxybenzyl)-1,2,4-oxadiazole-5-carboxamide]	90.16	statistically significant inhibition	0.06482 g/cm of loop				
O=S(=O)(Nc1cccc(-c2ccc(OCCc3ccc(Cl)cc3)nn2)c1)C(F)(F)F [compound 2, N-(3-(6-(4-chlorophenethoxy)pyridazin-3-yl)phenyl)-1,1,1-trifluoromethanesulfonamide]		statistically significant inhibition		64	blocks CaCC and that the block is voltage dependent; also recorded: blocked CaCC and the block was voltage dependent	23	blocks VRAC significantly and that the block is voltage dependent; also recorded: blocked VRAC significantly and the block was voltage dependent
